Results: patent US20230277483A1, “COMPOSITIONS AND METHODS TO TREAT INFLAMMATION” (University of Iowa Research Foundation, priority 2022, published 2023)

What was measured:
HGF = test: Anti-inflammatory miR expression after Pg-LPS challenge; format: cell-based, human; conditions: 24 hours after Pg-LPS challenge
Method: (§1) FIGS. 11A-11B. Sg metabolites upregulate anti-inflammatory miRs in human macrophages and HGF. A-B: Relative transcript changes of miR-200c, 146a, and 21 in HGF (A) and human MDM (B) treated with AICAR, MA, HCA, and HPLA 24 hours after Pg-LPS challenge; performed in duplicate.

[1] = system: human monocyte-derived macrophages (MDM) using THP-1 cells; test: Proinflammatory cytokines after Pg-LPS challenge (qRT-PCR, ELISA); format: cell-based; conditions: at 0.1 μg after Pg-LPS challenge
Method: (§2) Sg metabolites modulate proinflammatory cytokines in human periodontal associated cells in vitro. Sg were cultured in a total of 40 ml DMEM for 24 hrs. After 200 μl of Sg suspension reached 0.2 at OD600 value in a 96-well plate, the Sg metabolites were collected by centrifugation at 3000 g for 10 min and then filtered through a 0.22 μm filter. No toxicity of Sg metabolites was detected using an MTT assay on primary human bone marrow mesenchymal stromal cells (BMSCs) and primary human gingival fibroblasts (HGF) (data no shown). The modulation of Sg metabolites on inflammatory cytokines was tested using human monocyte-derived macrophages (MDM) and HGF. The MDM were generated by inducing a human macrophage cell line (THP-1) using PMA at 10 ng/ml. The MDM at 2×10^6 cells/per well and HGF at 2×10^4 cells/per well were cultured in 24-well plates using DMEM with 10% FBS and 1% PS. The Sg metabolites at 1 and 5% v/v were added and incubated for 24 hrs before challenging with Pg-LPS at 100 ng/ml.
(§3) Human monocyte-derived macrophages (MDM) using THP-1 cells and HGF were cultured in a 24-well plate with DMEM and challenged with Pg-LPS at 100 ng/ml.
(§4) In addition, freshly isolated epidydimal white adipose tissues (eWAT) from mice on a HFD for 16 weeks were minced and cultured in 24-well plates and treated with HCA at 0.5 and 1.0 μM in DMEM/F-12 containing 10% cosmic calf serum (CCS) and 1% penicillin-streptomycin (basal growth media, BGM). […] These preliminary data are strong evidence that Sg metabolites have the potential to modulate host inflammatory responses and attenuate inflammation.
HCA promotes proliferation of health related bacteria and inhibits proliferation and attachment of periodontopathogenic bacteria. Promoting the growth of health-related commensal bacteria while inhibiting proliferation and attachment of pathogenic bacteria may be effective at preventing or treating periodontal inflammation. To determine if HCA has an effect on the growth properties of commensal bacteria and periodontopathogens, HCA at different concentrations was added to aerobic culture of S. mitis and S. oralis and anaerobic culture of T. denticola as described in our published manuscript (see detail in Shu et al, Journal of Periodontology, 2022). FIGS. 18A-C summarize the functions of HCA on the proliferation of specific commensal and pathogenic bacteria. […] Furthermore, the function of HCA on P. gingivalis attachment, a key parameter of adhesion and biofilm formation by periodontopathogenic bacteria, was investigated. […] Attachment measurements of P. gingivalis were performed based on our published studies (see detail in Shu et al, Journal of Periodontology, 2022). […] To test the biocompatibility and anti-inflammatory properties of HCA, human monocyte-derived macrophages (MDM) and gingival fibroblasts (HGF) were prepared as described in our previous studies. The cells were then treated with HCA from 0.1 to 50 μM. No toxicity was observed after treatment with different concentrations of HCA in either cell type using an MTT assay (FIGS. 19A and B, left column). The anti-inflammatory function of HCA on MDM and HGF after exposure to P. gingivalis lipopolysaccharide (PG-LPS) was investigated. […] HCA mitigates inflammation and affects the composition of microbiomes in vivo. Recent studies investigated whether HCA modulates periodontal inflammation using a mouse model. To induce periodontal inflammation, a total of 1 μl Pg-LPS at 10 μg/μl was directly injected twice a week into the interdental region between maxillary molars of C57BL/6J mice using a Hamilton1700 series syringe according to our previously published studies. 100 μl of HCA at 0.5 μM was administrated I.P. three time a week. […] It was also tested whether HCA affects the composition of the microbiome in vivo. For this purpose, high fat diet-induced obese (DIO) mice (The Jackson Laboratory) received I.P, administration of 100 μl of HCA at 0.2 and 0.5 μM three times a week for 3 weeks. […]

[2] = system: human gingival fibroblasts (HGF); test: Proinflammatory cytokines after Pg-LPS challenge (qRT-PCR, ELISA, antibody array); format: cell-based; conditions: for proinflammatory cytokines (transcripts of IL-1β, 6 and 8): at 0.1 μg after Pg-LPS challenge
Method: as §2
(§5) L-Norleucine as well as other metabolites modulate proinflammatory cytokines in macrophages and HGF. L-Norleucine was obtained commercially (Sigma) and dissolved in DMEM. Mouse macrophages and human HGF were cultured with DMEM supplemented with different concentrations of L-Norleucine and subsequently challenged with Pg-LPS at 100 ng/ml.
as §3, §4
HCA promotes proliferation of health related bacteria and inhibits proliferation and attachment of periodontopathogenic bacteria. Promoting the growth of health-related commensal bacteria while inhibiting proliferation and attachment of pathogenic bacteria may be effective at preventing or treating periodontal inflammation. To determine if HCA has an effect on the growth properties of commensal bacteria and periodontopathogens, HCA at different concentrations was added to aerobic culture of S. mitis and S. oralis and anaerobic culture of T. denticola as described in our published manuscript (see detail in Shu et al, Journal of Periodontology, 2022). FIGS. 18A-C summarize the functions of HCA on the proliferation of specific commensal and pathogenic bacteria. […] Furthermore, the function of HCA on P. gingivalis attachment, a key parameter of adhesion and biofilm formation by periodontopathogenic bacteria, was investigated. […] Attachment measurements of P. gingivalis were performed based on our published studies (see detail in Shu et al, Journal of Periodontology, 2022). […] To test the biocompatibility and anti-inflammatory properties of HCA, human monocyte-derived macrophages (MDM) and gingival fibroblasts (HGF) were prepared as described in our previous studies. The cells were then treated with HCA from 0.1 to 50 μM. No toxicity was observed after treatment with different concentrations of HCA in either cell type using an MTT assay (FIGS. 19A and B, left column). The anti-inflammatory function of HCA on MDM and HGF after exposure to P. gingivalis lipopolysaccharide (PG-LPS) was investigated. […] HCA mitigates inflammation and affects the composition of microbiomes in vivo. Recent studies investigated whether HCA modulates periodontal inflammation using a mouse model. To induce periodontal inflammation, a total of 1 μl Pg-LPS at 10 μg/μl was directly injected twice a week into the interdental region between maxillary molars of C57BL/6J mice using a Hamilton1700 series syringe according to our previously published studies. […]

Human MDM = test: Anti-inflammatory miR expression after Pg-LPS challenge; format: cell-based; conditions: 24 hours after Pg-LPS challenge
Method: as §1
Human MDM was cultured in a 24-well plate and treated with HCA at different concentrations and Pg-LPS at 100 ng/mi for 24 hrs. […] (All data are presented as means±SEM. *: p<0.05 vs untreated, ANOVA).

Mouse macrophages = test: Proinflammatory cytokine transcripts after Pg-LPS challenge; format: cell-based
Method: as §5

[3] = L-Norleucine at 1 and 5 μM, Pg-LPS at 100 ng/ml

Structure (SMILES)	anti-inflammatory miRs (miR-200c, 146a, and 21) (HGF)	proinflammatory cytokines (IL-6 transcript and IL-6 protein in supernatants) [1]	proinflammatory cytokines (transcripts of IL-1β, 6 and 8) [2]	anti-inflammatory miRs (miR-200c, 146a, and 21) (Human MDM)	transcripts of IL-1β, 6, and 8 [2, 3]	IL-6 and IL-8 in macrophages (Mouse macrophages; L-Norleucine)	transcripts of IL-1β, 6, and 8 (Mouse macrophages; [3])
NC(=O)c1ncn([C@@H]2O[C@H](CO)[C@@H](O)[C@H]2O)c1N [AICAR, acadesine]	upregulate	modulate	modulate	upregulate			
CCCC[C@H](N)C(=O)O [L-Norleucine]					effectively downregulated	effectively downregulated	effectively downregulated
O=C(O)C(O)Cc1ccc(O)cc1 (stereo not drawn) [HPLA, 4-hydroxyphenyllactic acid]	upregulate	modulate	modulate	upregulate			
O=C(O)CC(O)C(=O)O (stereo not drawn) [MA, malic acid]	upregulate	modulate	modulate	upregulate			
